The values below come from ChEMBL document CHEMBL5360595, “Ligand-Directed Photodegradation of Interacting Proteins: Oxidative HER2/HER3 Heterodimer Degradation with a Lapatinib-Derived Photosensitizer” (J Med Chem, 2023).

Assay [1] deals with MDA-MB-453. The assay is described as follows: Induction of intracellular ROS generation in human MDA-MB-453 cells assessed as increase in green fluorescence signal at […] pretreated for 6 hrs followed by irradiation with 400 to 700 nm 100 mW/cm2 LED light for 10 min by DCFH2-DA staining based flow cytometry analysis. It counts as functional, cell-based. To be noted: time 370.0 min. In general terms: In flow cytometry, cells or beads pass a laser one at a time.

Assay [2] concerns MDA-MB-453. In words: Photocytotoxicity against human MDA-MB-453 cells cultured as 3D spheroids assessed as reduction in cell viability pretreated for 10 mins and measured after 72 hrs in presence of 400 to 700 nm 100 mW/cm2 LED light by CCK-8 assay. It counts as functional, cell-based.
Assay [3] addresses T1, ErbB-2/ErbB-3 heterodimer (Homo sapiens, UniProt P04626+P21860). The assay is described as follows: Induction of HER2/HER3 degradation in human MDA-MB-453 cells assessed as HER2 degradation preincubated for 24 hrs followed by irradiation with 400 to 700 nm 100 mW/cm2 LED light for 10 min by Western blot analysis. The format is cell-based. (Immunoblotting shows a protein as a band on a membrane.)

In assay [4] the test system is MDA-MB-453. In words: Induction of apoptosis in human MDA-MB-453 cells assessed as increase in cleaved caspase-3 expression at 0.5 uM preincubated for 24 hrs followed by irradiation with 400 to 700 nm 100 mW/cm2 LED light for 10 min by Western blot analysis. The format is functional, cell-based. Conditions: time 1450.0 min.
For assay [5], the target named is Receptor tyrosine-protein kinase erbB-2 (Homo sapiens, UniProt P04626). The assay is described as follows: Inhibition of HER2 (unknown origin) incubated for 40 mins by Kinase-Glo Max assay. The format is cell-based, Sf9.
Assay [6] has as its system MDA-MB-453. In words: Photocytotoxicity against human MDA-MB-453 cells cultured as 3D spheroids assessed as reduction in cell density at 0.5 to 10 uM incubated for 72 hrs by bright-field microscopic analysis. The format is functional, cell-based. Conditions: dose 0.5-10 µM.
Assay [7] deals with Serine/threonine-protein kinase AKT (Homo sapiens) (UniProt P31751+Q9Y243+P31749). The assay is described as follows: Inhibition of AKT phosphorylation in human MDA-MB-453 cells at 0.5 uM preincubated for 24 hrs followed by irradiation with 400 to 700 nm 100 mW/cm2 LED light for 10 min by Western blot analysis. The format is cell-based. To be noted: time 1450.0 min.
Assay [8] has as its target T1, ErbB-2/ErbB-3 heterodimer. In words: Induction of HER2/HER3 degradation in human MDA-MB-453 cells assessed as decrease in HER2/HER3 heterodimer preincubated for 24 hrs followed by irradiation with 400 to 700 nm 100 mW/cm2 LED light for 10 min by Co-Immunoprecipitation Analysis. It counts as cell-based. To be noted: time 1450.0 min.
Assay [9] is described as follows: Photocytotoxicity against human Lapatinib-resistant MDA-MB-453 assessed as inhibition of cell growth under hypoxic condition incubated for 72 hrs in presence of LED light irradiation of 100 mW/cm2 at 400 to 700 nm by CCK-8 assay. It counts as functional, cell-based. Conditions: Lapatinib-resistant MDA-MB-453, light or radiation study. In general terms: Tetrazolium assays rely on reduction of a dye to a coloured formazan, in cell work by metabolically active cells.

For assay [10], the target named is T1, ErbB-2/ErbB-3 heterodimer. In words: Induction of HER2/HER3 degradation in human MDA-MB-453 cells assessed as increase in HER2/HER3 heterodimer incubated for 24 hrs by Co-immunoprecipitation analysis. It counts as cell-based.
A short description of assay [11]: Photocytotoxicity against human Lapatinib-resistant MDA-MB-453 assessed as reduction in cell viability incubated for 72 hrs in presence of LED light irradiation of 100 mW/cm2 at 400 to 700 nm by CCK-8 assay. Conditions: Lapatinib-resistant MDA-MB-453, light or radiation study. It counts as functional, cell-based.
Assay [12] has as its system MDA-MB-453. In words: Induction of intracellular ROS generation in human MDA-MB-453 cells assessed as increase in green fluorescence signal at 0.5 uM pretreated for 6 hrs followed by irradiation with 400 to 700 nm 100 mW/cm2 LED light for 10 min by DCFH2-DA staining based flow cytometry analysis. To be noted: time 370.0 min. It counts as functional, cell-based.
Assay [13] has as its system MDA-MB-453. The assay is described as follows: Photocytotoxicity against human MDA-MB-453 cells cultured as 3D spheroids assessed as increase in dead cells by measuring red fluorescence intensity pretreated with compound for 10 mins and measured after 72 hrs in presence of 400 to 700 nm […] LED light by calcein-AM/PI staining based fluorescence analysis. The format is functional, cell-based. To be noted: time 4330.0 min.

For assay [14], the target named is Mitogen-activated protein kinase; ERK1/ERK2 (Homo sapiens) (UniProt P27361+P28482). The assay is described as follows: Inhibition of Erk1/2 phosphorylation in human MDA-MB-453 cells at 0.5 uM preincubated for 24 hrs followed by irradiation with 400 to 700 nm 100 mW/cm2 LED light for 10 min by Western blot analysis. It counts as cell-based. To be noted: time 1450.0 min.

Assay [15] concerns MDA-MB-453. The assay is described as follows: Induction of apoptosis in human MDA-MB-453 cells assessed as increase in BAX/Bcl-2 ratio at 0.5 uM preincubated for 24 hrs followed by irradiation with 400 to 700 nm 100 mW/cm2 LED light for 10 min by Western blot analysis. It counts as functional, cell-based. To be noted: time 1450.0 min.
Assay [16] has as its system MDA-MB-453. The assay is described as follows: Induction of apoptosis in human MDA-MB-453 cells assessed as decrease in Bcl-2 expression at 0.5 uM preincubated for 24 hrs followed by irradiation with 400 to 700 nm 100 mW/cm2 LED light for 10 min by Western blot analysis. It counts as functional, cell-based. To be noted: time 1450.0 min.
For assay [17], the system named is MDA-MB-453. The assay is described as follows: Photocytotoxicity against human MDA-MB-453 cells cultured as 3D spheroids assessed as reduction in diameter of tumor spheroid size at 0.5 to 10 uM pretreated with compound for 10 mins and measured after 72 hrs in presence of 400 to 700 nm 100 mW/cm2 LED light by bright-field microscopic analysis. The format is functional, cell-based. Conditions: dose 0.5-10 µM, time 4330.0 min.

Assay [18] relates to MDA-MB-453. In words: Photocytotoxicity against human MDA-MB-453 cells cultured as 3D spheroids assessed as reduction in diameter of tumor spheroid size at 0.5 to 10 uM incubated for 72 hrs by bright-field microscopic analysis. The format is functional, cell-based. To be noted: dose 0.5-10 µM.
Assay [19] deals with MDA-MB-453. In words: Photocytotoxicity against human MDA-MB-453 cells cultured as 3D spheroids assessed as reduction in cell viability incubated for 72 hrs by CCK-8 assay. The format is functional, cell-based. To be noted: MDA-MB-453, 72 h.
For assay [20], the target named is T1, ErbB-2/ErbB-3 heterodimer. The assay is described as follows: Induction of HER2/HER3 degradation in human MDA-MB-453 cells assessed as HER3 degradation preincubated for 24 hrs followed by irradiation with 400 to 700 nm 100 mW/cm2 LED light for 10 min by Western blot analysis. It counts as cell-based.
The nature of assay [21]: Photocytotoxicity against human Lapatinib-resistant MDA-MB-453 cells assessed as reduction in cell viability by CCK-8 assay. It counts as functional, cell-based.

Active and inactive are the calls of the source. The rule behind the calls is not given here. Where only a bound is given, the exact number is not on record here.

T1 sequence (P04626 whole entry): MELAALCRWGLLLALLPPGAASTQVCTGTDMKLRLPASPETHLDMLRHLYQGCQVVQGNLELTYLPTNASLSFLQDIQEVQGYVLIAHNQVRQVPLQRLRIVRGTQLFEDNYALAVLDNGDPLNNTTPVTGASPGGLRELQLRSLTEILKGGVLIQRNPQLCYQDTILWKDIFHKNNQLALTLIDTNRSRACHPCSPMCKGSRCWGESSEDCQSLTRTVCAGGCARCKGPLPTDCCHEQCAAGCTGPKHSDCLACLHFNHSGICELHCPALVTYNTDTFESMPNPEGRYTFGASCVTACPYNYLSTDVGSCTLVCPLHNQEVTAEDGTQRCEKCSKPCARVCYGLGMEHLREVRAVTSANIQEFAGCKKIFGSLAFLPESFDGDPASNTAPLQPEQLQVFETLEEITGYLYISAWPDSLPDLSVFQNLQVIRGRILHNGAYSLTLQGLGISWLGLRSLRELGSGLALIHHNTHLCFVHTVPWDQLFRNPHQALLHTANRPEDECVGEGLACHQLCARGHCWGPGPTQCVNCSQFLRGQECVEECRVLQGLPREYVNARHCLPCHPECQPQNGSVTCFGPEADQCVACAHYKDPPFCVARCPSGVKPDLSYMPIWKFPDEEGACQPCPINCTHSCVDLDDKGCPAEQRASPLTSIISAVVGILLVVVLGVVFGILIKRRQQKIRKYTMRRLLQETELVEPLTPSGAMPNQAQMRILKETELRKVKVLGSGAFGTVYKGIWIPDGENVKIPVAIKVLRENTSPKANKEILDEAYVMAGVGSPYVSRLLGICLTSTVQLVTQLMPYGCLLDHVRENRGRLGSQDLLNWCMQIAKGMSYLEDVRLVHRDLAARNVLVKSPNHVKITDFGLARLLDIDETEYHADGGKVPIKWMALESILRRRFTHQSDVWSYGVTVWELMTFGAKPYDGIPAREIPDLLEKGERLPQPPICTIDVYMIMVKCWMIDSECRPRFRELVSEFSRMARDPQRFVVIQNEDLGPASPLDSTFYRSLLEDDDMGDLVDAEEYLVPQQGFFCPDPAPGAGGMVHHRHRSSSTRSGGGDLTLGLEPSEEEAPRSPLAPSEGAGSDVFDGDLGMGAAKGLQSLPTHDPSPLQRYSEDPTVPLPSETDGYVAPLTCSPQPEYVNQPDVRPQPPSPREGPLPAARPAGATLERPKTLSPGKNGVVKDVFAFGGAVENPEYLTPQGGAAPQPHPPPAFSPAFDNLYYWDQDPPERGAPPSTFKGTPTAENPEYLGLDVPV
T1 sequence (P21860 whole entry): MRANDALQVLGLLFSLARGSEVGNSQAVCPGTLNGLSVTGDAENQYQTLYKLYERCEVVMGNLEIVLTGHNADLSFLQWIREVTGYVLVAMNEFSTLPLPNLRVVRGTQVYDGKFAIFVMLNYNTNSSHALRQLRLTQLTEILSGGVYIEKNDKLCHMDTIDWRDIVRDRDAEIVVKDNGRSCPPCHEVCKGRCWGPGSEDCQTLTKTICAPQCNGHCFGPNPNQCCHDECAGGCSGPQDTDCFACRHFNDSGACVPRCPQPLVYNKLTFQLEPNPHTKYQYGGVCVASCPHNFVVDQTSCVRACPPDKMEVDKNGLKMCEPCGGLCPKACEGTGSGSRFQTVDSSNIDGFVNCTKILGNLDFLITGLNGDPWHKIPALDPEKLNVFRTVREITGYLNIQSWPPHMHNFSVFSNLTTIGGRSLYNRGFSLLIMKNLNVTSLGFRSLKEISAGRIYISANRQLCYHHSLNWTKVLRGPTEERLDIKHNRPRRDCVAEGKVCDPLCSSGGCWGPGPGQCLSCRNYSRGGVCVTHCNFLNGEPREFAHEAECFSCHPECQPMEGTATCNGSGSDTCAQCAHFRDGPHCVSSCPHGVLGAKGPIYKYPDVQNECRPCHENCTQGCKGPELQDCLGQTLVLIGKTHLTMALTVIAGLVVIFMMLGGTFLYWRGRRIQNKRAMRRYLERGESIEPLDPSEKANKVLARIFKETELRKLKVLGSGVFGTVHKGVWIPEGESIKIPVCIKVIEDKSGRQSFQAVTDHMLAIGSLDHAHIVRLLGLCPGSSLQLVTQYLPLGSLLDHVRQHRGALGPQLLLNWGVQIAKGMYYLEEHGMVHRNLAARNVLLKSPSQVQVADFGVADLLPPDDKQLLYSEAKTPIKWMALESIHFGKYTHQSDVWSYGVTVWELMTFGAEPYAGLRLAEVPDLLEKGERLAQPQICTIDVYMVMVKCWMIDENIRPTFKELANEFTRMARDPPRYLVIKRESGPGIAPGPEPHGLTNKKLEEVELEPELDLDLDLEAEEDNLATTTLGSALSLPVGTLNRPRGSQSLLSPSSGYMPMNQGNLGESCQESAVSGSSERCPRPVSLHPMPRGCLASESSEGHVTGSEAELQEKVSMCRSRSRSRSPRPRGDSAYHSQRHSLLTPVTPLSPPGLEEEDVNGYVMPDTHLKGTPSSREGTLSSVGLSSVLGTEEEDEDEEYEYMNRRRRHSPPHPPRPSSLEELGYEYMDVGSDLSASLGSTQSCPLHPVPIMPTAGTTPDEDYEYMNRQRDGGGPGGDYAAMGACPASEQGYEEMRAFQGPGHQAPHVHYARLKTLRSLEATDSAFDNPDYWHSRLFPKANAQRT
Receptor tyrosine-protein kinase erbB-2, sequence (P04626 whole entry): as the sequence (P04626 whole entry) above
Mitogen-activated protein kinase; ERK1/ERK2 (Homo sapiens), sequence (P27361 whole entry, looked up): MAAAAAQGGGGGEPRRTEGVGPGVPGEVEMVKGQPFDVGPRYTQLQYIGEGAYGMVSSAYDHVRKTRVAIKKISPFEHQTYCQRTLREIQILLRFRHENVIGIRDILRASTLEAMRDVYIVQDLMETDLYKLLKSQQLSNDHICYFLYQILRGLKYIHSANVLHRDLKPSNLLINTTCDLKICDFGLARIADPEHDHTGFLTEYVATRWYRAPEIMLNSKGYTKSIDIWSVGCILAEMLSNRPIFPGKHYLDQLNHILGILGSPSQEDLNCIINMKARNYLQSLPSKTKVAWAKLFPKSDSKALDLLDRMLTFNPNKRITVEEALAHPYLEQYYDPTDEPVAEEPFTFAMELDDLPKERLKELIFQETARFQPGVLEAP
Mitogen-activated protein kinase; ERK1/ERK2 (Homo sapiens), sequence (P28482 whole entry, looked up): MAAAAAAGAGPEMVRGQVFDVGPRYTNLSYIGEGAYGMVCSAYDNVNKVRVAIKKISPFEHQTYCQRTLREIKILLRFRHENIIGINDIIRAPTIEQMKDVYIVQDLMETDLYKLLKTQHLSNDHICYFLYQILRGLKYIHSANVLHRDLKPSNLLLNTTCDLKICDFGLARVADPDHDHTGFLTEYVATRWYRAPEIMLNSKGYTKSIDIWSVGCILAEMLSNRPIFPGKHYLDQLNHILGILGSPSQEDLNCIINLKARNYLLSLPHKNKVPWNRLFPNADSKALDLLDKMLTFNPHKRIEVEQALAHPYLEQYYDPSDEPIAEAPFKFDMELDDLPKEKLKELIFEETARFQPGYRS

As to `O=S(=O)(O)c1cc(O)c(O)c(S(=O)(=O)O)c1`, the result in the assay on MDA-MB-453 [1] was Active.
For `CC[n+]1c(/C=C/c2ccc(-c3ccc4ncnc(Nc5ccc(OCc6cccc(F)c6)c(Cl)c5)c4c3)s2)sc2ccccc21`, the 50% inhibitory concentration (IC50) in the assay on MDA-MB-453 [2] was 2130 nM; in assay [5], 105 nM; in [9] it was 585 nM; in [11], 226 nM; with MDA-MB-453 [19], more than 20000 nM. The DC50 in assay [3] worked out at 520 nM; in assay [20] it was 584 nM. For the same molecule, the Activity entry in assay [3] (time 1450.0 min) was “Dose-Dependent Effect”. In addition, the outcome (in the assay with MDA-MB-453 [4]; in assay [8]; in the assay with MDA-MB-453 [12]; in the assay with MDA-MB-453 [13]; with MDA-MB-453 [15]; with MDA-MB-453 [16]) was Active. The outcome in the assay on MDA-MB-453 [17] was Active. The result (in the assay with MDA-MB-453 [6]; in [10]; with MDA-MB-453 [18]) was inactive. The inhibition result in assay [7] and in [14] was “Active” in each case.
`CS(=O)(=O)CCNCc1ccc(-c2ccc3ncnc(Nc4ccc(OCc5cccc(F)c5)c(Cl)c4)c3c2)o1` [LAPATINIB]: the IC50 in assay [21] was more than 5000 nM; in the assay with MDA-MB-453 [19], more than 20000 nM.
Consider `CC[n+]1c(/C=C/c2ccc(-c3ccc4ncnc(Nc5ccc(OCc6cccc(F)c6)c(Cl)c5)c4c3)o2)sc2ccccc21`, for which the IC50 was determined as 50 nM in [5] and 1560 nM in assay [11].

As a reminder, the IC50 is the concentration that gives 50% inhibition. In general, DC50 refers to the midpoint of the concentration-degradation curve.
